Like-named read-outs stand apart in the source and are kept apart here.
Assays:
[1] = copper chelating agent; cited from earlier work
[2] = oxidized form; literature values (footnotes a, c, d, e); cited from earlier work
PA14 = experiment: Redox cycling, reduction by and survival support of PA14; assay type: cell-based, P. aeruginosa
[3] = test system: Pseudomonas aeruginosa aggregate biofilms; experiment: PodA and tobramycin agar block biofilm assay (ABBA) synergy experiments; assay type: cell-based; details: for peak PI intensity: PodA10 5 μM, tobramycin 50 μg mL^−1
Procedure: Pseudomonas aeruginosa PodA and tobramycin agar block biofilm assay (ABBA) synergy experiments. Starter Pseudomonas aeruginosa cultures were grown 24 h at 37° C. shaking in LB and the OD500 was determined by diluting cells 1:10. For inoculation into agar, cells were first diluted to an OD of 1.0, followed by a 1:10 dilution for a final OD of 0.1. Molten LB agar (1% w/v) or SCFM agar (1% w/v, made by mixing premade 2× SCFM and 2% agar) was incubated at 44° C., after which 10 μL of OD 0.1 culture was added and mixed into 1 mL of agar, for a final starting OD of 0.001. A portion of the mixture (200 μL) was pipetted into a well of an 8-well glass chamber slide for microscopy (Thermo Fisher Scientific #155409) or into a 2 mL Eppendorf tube for cell viability experiments. ABBAs were incubated at 37° C. for 24 h in a Tupperware lined with wet paper towels. Following growth, ABBAs were washed with 200 μL of HEPES (20 mM, pH 7) to rid planktonic cells growing on the surface of the agar. Treatment stocks (100 μL each) were made by diluting PodA10 and/or tobramycin into HEPES (final concentration of 20 mM, pH 7), with the no treatment control consisting of solely HEPES. Final concentrations of PodA (5 μM) and tobramycin (50 ug mL^−1) were calculated accounting for the total volume of the agar+liquid. ABBAs were treated overnight (14 h), treatment mixture was decanted, and agar blocks were washed with HEPES (400 μL).
For microscopy experiments, cells were incubated for 30 min with 125 μL of diluted propidium iodide (final concentration of 490 μM when added to ABBA, taking into account volume of the agar) and SYTO-9 (final concentration of 16 μM), after which 50 μL of a 1:50 dilution of 5-μm fluorescent beads (Spherotech; CFP-5045-2) was added to each agar block. ABBAs were imaged with a Leica TCS SPE confocal microscope as described elsewhere using 512×512-pixel format (29)[44], with the exception of imaging with a 6 μm step-size in the Z-direction.
For cell viability experiments, 300 μL of HEPES (20 mM, pH 7) was pipetted into each Eppendorf ABBA tube and samples were homogenized on speed 3 of a Bio-Gen PRO200 Homogenizer (PRO Scientific). Samples were briefly spun to rid of air bubbles (<1,000×g) and diluted in series and plated as described above in liquid synergy experiments. Experiments were completed with biological triplicates and was repeated thrice, with a representative figure shown.
ABBA microscopy image analysis. Images were analyzed in FIJI by re-slicing the data set in the XZ dimension followed by a max-intensity Z-projection. The brightness/contrast was auto-normalized in FIJI to the sample treated with only tobramycin. These LUT values were then applied to the other images in the corresponding data sets. Average pixel intensities along the Z-dimensions were found using the “Plot Profile” function in FIJI.
To determine mean pixel intensity and aggregate volume of each ABBA, channels 1 (SYTO-9) and 2 (Propidium Iodide) were combined into a single channel using FIJI. Images were analyzed in Imaris and aggregate masks were created using the “surface” module of the software. Using the surface Imaris wizard, all options under algorithm settings were unchecked. For surface channel settings, channel 3 (representing combined channels) was chosen and default settings were maintained. For threshold settings, the no treatment ABBA sample was analyzed for proper data inclusion and a value of 60 was used for all LB samples, with a threshold value of 40 for all SCFM samples. Lastly, data were excluded 0.1 μm from the XY edges, to exclude aggregates that were cut off due to imaging field. Data were not excluded from the top edge of the ABBA, as images were collected from the surface of the agar using fluorescent beads as described above. Exported statistics were used to plot aggregate volume or mean PI intensity against position of aggregates in the Z-dimension. […]

[4] = Redox potential E0' vs. NHE of redox-active compounds; assay type: physicochemical; details: measured in aqueous solution at pH 7 in this study (footnote b)

| Molecule | E^0, (vs. NHE) (mV) [2] | Reduction by PA14? (PA14) | Support survival? (PA14) | # of Redox cycles over 7 days (PA14) | further results |
| --- | --- | --- | --- | --- | --- |
| Oc1cccc2nc3ccccc3nc12 [1-Hydroxyphenazine (1-OHPHZ), 1-Hydroxyphenazine] | −174 ^a mV | Yes | Yes | 14 | log of the equilibrium constant βmlh of binding copper [1]: 8.68 |
| NC[C@H]1O[C@H](O[C@H]2[C@H](O)[C@@H](O[C@H]3O[C@H](CO)[C@@H](O)[C@H](N)[C@H]3O)[C@H](N)C[C@@H]2N)[C@H](N)C[C@@H]1O [tobramycin] | – | – | – | – | PI staining versus non-treated samples ([3]; LB ABBA, hypoxia/anoxia from around 300 μm): no significant differences; peak PI intensity ([3]; LB): 151.0 AUs; PI staining versus no treatment controls ([3]; SCFM ABBA, all depths): considerably higher than no treatment controls at all depths; peak PI intensity ([3]; SCFM): 22.6 AUs |
| O=C1c2ccc(S(=O)(=O)O)cc2C(=O)c2ccc(S(=O)(=O)O)cc21 [2,6-AQDS] | −184 ^d mV | Yes (very slowly) | No | No cycle | – |
| CN(C)c1ccc2nc3ccc(=[N+](C)C)cc-3sc2c1 [Methylene blue (MB), Methylene blue] | +11 mV | Yes | No | 3 | E^0, (vs. NHE) (mV) [4]: 0 mV |
| C[n+]1c2ccccc2nc2c([O-])cccc21 [Pyocyanin (PYO), Pyocyanin] | −40^a mV | Yes | Yes | 31 | – |
| O=C(O)c1cccc2nc3ccccc3nc12 [Phenazine-1-carboxylate (PCA), Phenazine-1-carboxylate] | −114 ^a mV | Yes | Yes | 22 | – |
| O=C(O)Cc1cc(O)ccc1O [Homogentisic acid (HMA), Homogentisic acid] | – | – | No | No cycle | E^0, (vs. NHE) (mV) [4]: +306^b mV |
| C[n+]1ccc(-c2cc[n+](C)cc2)cc1 [Paraquat] | −446^e mV | No | No | No cycle | – |
| PodA: Pyocyanin demethylase of M. fortuitum, SEQ ID NO: 1; in the ABBA experiments the PodA added was PodA10 (protein, listed as Mycobacterium fortuitum) MTGKTKPAIIGGVAITALAAAGLGVWLFTDGRGGRSTTEPVTMTLDVKNDQVAKHDFGKPGMDVGDMDIFSDILSVDGKQVGYDGGACFFTNVTPDNPMTYCELTIHLDAGEIFARSLTPHTLAPFTMAITGGTGEYANSKGELTVSGVATPDEKYELKLTK | – | – | – | – | outside ring PI staining pattern of aggregates ([3]; LB, XY-plane, versus untreated aggregates): abolished; PI staining at depth ([3]; PodA alone, >300 μm in LB (anoxic zone)): did not significantly change |
